The source made the active and inactive calls. The rule behind the calls is not given here.
Experiments:
Escherichia coli [1] = assay: Induction of membrane permeabilization in Escherichia coli ATCC 25922 assessed as loss of pili/flagella at MBC after 1 hr by atomic force microscopic method; type: functional
Escherichia coli [2] = assay: Induction of membrane permeabilization in Escherichia coli ATCC 25922 assessed as loss of pili/flagella at MIC after 1 hr by atomic force microscopic method; type: functional
Escherichia coli [3] = assay: Bactericidal activity against Escherichia coli ATCC 25922 after 18 hrs by microdilution method; type: functional; details: for MBC: ATCC 25922, 18 h, read-out: MBC=>99.9
Escherichia coli [4] = assay: Antibacterial activity against Escherichia coli ATCC 25922 after 18 hrs by microdilution method; type: functional
Staphylococcus aureus [5] = assay: Bactericidal activity against clinical isolates of Staphylococcus aureus after 18 hrs by microdilution method; type: functional; details: read-out: MBC=>99.9
Escherichia coli [6] = assay: Induction of membrane permeabilization in Escherichia coli ATCC 25922 assessed as propidium iodide uptake at 0.25 to 1 times MIC preincubated up to 60 mins followed by propidium iodide addition by flow cytometry relative to control; type: functional
Staphylococcus aureus [7] = assay: Growth inhibition of Staphylococcus aureus ATCC 25923 measured every 10 mins for 4 hrs; type: functional
Escherichia coli [8] = assay: Induction of membrane permeabilization in Escherichia coli ATCC 25922 assessed as loss of pili/flagella up to 128 uM after 1 hr by atomic force microscopic method; type: functional
Staphylococcus aureus [9] = assay: Bactericidal activity against Staphylococcus aureus ATCC 25923 after 18 hrs by microdilution method; type: functional; details: ATCC 25923, 18 h, read-out: MBC=>99.9
Pseudomonas aeruginosa [10] = assay: Antibacterial activity against Pseudomonas aeruginosa ATCC 27853 after 18 hrs by microdilution method; type: functional; details: ATCC 27853, 18 h
Acinetobacter baumannii [11] = assay: Bactericidal activity against Acinetobacter baumannii ATCC 19606 after 18 hrs by microdilution method; type: functional; details: ATCC 19606 = CIP 70.34 = JCM 6841, 18 h, read-out: MBC=>99.9
Acinetobacter baumannii [12] = assay: Bactericidal activity against clinical isolates of Acinetobacter baumannii after 18 hrs by microdilution method; type: functional; details: read-out: MBC=>99.9
Staphylococcus aureus [13] = assay: Antibacterial activity against clinical isolates of Staphylococcus aureus after 18 hrs by microdilution method; type: functional
Pseudomonas aeruginosa [14] = assay: Bactericidal activity against Pseudomonas aeruginosa ATCC 27853 after 18 hrs by microdilution method; type: functional; details: ATCC 27853, 18 h, read-out: MBC=>99.9
Escherichia coli [15] = assay: Antibacterial activity against clinical isolates of Escherichia coli after 18 hrs by microdilution method; type: functional
Klebsiella pneumoniae [16] = assay: Antibacterial activity against Klebsiella pneumoniae ATCC 13883 after 18 hrs by microdilution method; type: functional; details: ATCC 13883, 18 h
Pseudomonas aeruginosa [17] = assay: Antibacterial activity against clinical isolates of Pseudomonas aeruginosa after 18 hrs by microdilution method; type: functional
Escherichia coli [18] = assay: Induction of membrane permeabilization in Escherichia coli ATCC 25922 assessed as surface indentations at MIC after 1 hr by atomic force microscopic method; type: functional
Acinetobacter baumannii [19] = assay: Antibacterial activity against clinical isolates of Acinetobacter baumannii after 18 hrs by microdilution method; type: functional
Klebsiella pneumoniae [20] = assay: Bactericidal activity against clinical isolates of Klebsiella pneumoniae after 18 hrs by microdilution method; type: functional; details: read-out: MBC=>99.9
Escherichia coli [21] = assay: Induction of membrane permeabilization in Escherichia coli ATCC 25922 assessed as formation of pores/cavities at MIC after 1 hr by atomic force microscopic method; type: functional
Escherichia coli [22] = assay: Induction of membrane permeabilization in Escherichia coli ATCC 25922 assessed as propidium iodide uptake preincubated up to 60 mins followed by propidium iodide addition by flow cytometry; type: functional
Staphylococcus aureus [23] = assay: Antibacterial activity against Staphylococcus aureus ATCC 25923 after 18 hrs by microdilution method; type: functional; details: ATCC 25923, 18 h
Klebsiella pneumoniae [24] = assay: Bactericidal activity against Klebsiella pneumoniae ATCC 13883 after 18 hrs by microdilution method; type: functional; details: ATCC 13883, 18 h, read-out: MBC=>99.9
Escherichia coli [25] = assay: Induction of membrane permeabilization in Escherichia coli ATCC 25922 assessed as bleb formation at MIC after 1 hr by atomic force microscopic method; type: functional
Pseudomonas aeruginosa [26] = assay: Bactericidal activity against clinical isolates of Pseudomonas aeruginosa after 18 hrs by microdilution method; type: functional; details: read-out: MBC=>99.9
Escherichia coli [27] = assay: Induction of membrane permeabilization in Escherichia coli ATCC 25922 assessed as massive cell disruption/collapse at MBC after 1 hr by atomic force microscopic method; type: functional
Klebsiella pneumoniae [28] = assay: Antibacterial activity against clinical isolates of Klebsiella pneumoniae after 18 hrs by microdilution method; type: functional
Acinetobacter baumannii [29] = assay: Antibacterial activity against Acinetobacter baumannii ATCC 19606 after 18 hrs by microdilution method; type: functional; details: ATCC 19606 = CIP 70.34 = JCM 6841, 18 h
Escherichia coli [30] = assay: Bactericidal activity against clinical isolates of Escherichia coli after 18 hrs by microdilution method; type: functional; details: read-out: MBC=>99.9
Escherichia coli [31] = assay: Growth inhibition of Escherichia coli ATCC 25922 measured every 10 mins for 4 hrs; type: functional
[32] = Selectivity index, ratio of HC50 for human RBC to MIC for Escherichia coli ATCC 25922
[33] = Selectivity index, ratio of HC50 for human RBC to MIC for Acinetobacter baumannii
[34] = Selectivity index, ratio of HC50 for human RBC to MIC for Pseudomonas aeruginosa
[35] = Selectivity index, ratio of HC50 for human RBC to MIC for Klebsiella pneumoniae
[36] = Selectivity index, ratio of HC50 for human RBC to MIC for Escherichia coli
[37] = Selectivity index, ratio of HC50 for human RBC to MIC for Staphylococcus aureus
Escherichia coli [38] = assay: Induction of membrane permeabilization in Escherichia coli ATCC 25922 assessed as propidium iodide uptake at MIC preincubated for 15 mins followed by propidium iodide addition by flow cytometry relative to control; type: functional
[39] = Selectivity index, ratio of HC50 for human RBC to MIC for Klebsiella pneumoniae ATCC 13883
[40] = Selectivity index, ratio of HC50 for human RBC to MIC for Pseudomonas aeruginosa ATCC 27853
Escherichia coli [41] = assay: Ratio of MIC to IC50 for Escherichia coli ATCC 25922; type: functional
[42] = Selectivity index, ratio of HC50 for human RBC to MIC for Staphylococcus aureus ATCC 25923
[43] = Selectivity index, ratio of HC50 for human RBC to MIC for Acinetobacter baumannii ATCC 19606

| Substance | Activity (Escherichia coli [1]) | MBC (Staphylococcus aureus [5]) | IC50 (Staphylococcus aureus [7]) | MBC (Staphylococcus aureus [9]) | MIC (Pseudomonas aeruginosa [10]) | MBC (Acinetobacter baumannii [11]) | MBC (Acinetobacter baumannii [12]) | MIC (Staphylococcus aureus [13]) | MBC (Pseudomonas aeruginosa [14]) | MIC (Escherichia coli [15]) | MIC (Klebsiella pneumoniae [16]) | MIC (Pseudomonas aeruginosa [17]) | Activity (Escherichia coli [18]) | MIC (Acinetobacter baumannii [19]) | MBC (Escherichia coli [3]) | MBC (Klebsiella pneumoniae [20]) | MIC (Escherichia coli [4]; ATCC 25922, 18 h) | Activity (Escherichia coli [21]) | IC50 (Escherichia coli [22]) | MIC (Staphylococcus aureus [23]) | further results |
| --- | --- | --- | --- | --- | --- | --- | --- | --- | --- | --- | --- | --- | --- | --- | --- | --- | --- | --- | --- | --- | --- |
| COLISTIN | Active |  |  |  |  |  |  |  |  |  |  |  |  |  |  |  |  |  |  |  | Activity (Escherichia coli [2]): Active; MBC=>99.9 (Escherichia coli [3]): 0.5 µM; MIC (Escherichia coli [4]): 0.5 µM |
| H-KIAGKAGKIAKIAGKAGKIA-NH2 | Active | > 64 µM | > 128000 nM | > 64 µM | > 64 µM | > 64 µM | > 64 µM | > 64 µM | > 64 µM | > 64 µM | > 64 µM | > 64 µM | Active | > 64 µM | > 64 µM | > 64 µM | > 64 µM | Active | > 128000 nM | > 64 µM | Activity (Escherichia coli [6]): <5%; Activity (Escherichia coli [8]): inactive; MBC (Klebsiella pneumoniae [24]): > 64 µM; Activity (Escherichia coli [25]): Active; MBC (Pseudomonas aeruginosa [26]): > 64 µM; Activity (Escherichia coli [27]): Active; MIC (Klebsiella pneumoniae [28]): > 64 µM; MIC (Acinetobacter baumannii [29]): > 64 µM; MBC (Escherichia coli [30]): > 64 µM; IC50 (Escherichia coli [31]): > 128000 nM |
| H-KIAKGALKALKIAKGALKAL-NH2 | Active | 16 µM | 1600 nM | 32 µM | 8 to 16 µM | 2 µM | > 64 µM | 16 µM | 16 to 32 µM | 64 µM | 2 to 4 µM | 8 to 16 µM | Active | > 64 µM | 16 µM | 16 µM | 4 µM | Active | 600 nM | 16 to 32 µM | Selectivity Index [32]: 25; Selectivity Index [33]: < 1; Selectivity Index [34]: 6 to 12; Selectivity Index [35]: 12; Selectivity Index [36]: < 1; Selectivity Index [37]: 6; Activity (Escherichia coli [38]): >80%; Selectivity Index [39]: 25 to 50; MBC (Klebsiella pneumoniae [24]): 4 µM; Selectivity Index [40]: 6 to 12; Ratio (Escherichia coli [41]): >10; Activity (Escherichia coli [25]): Active; MBC (Pseudomonas aeruginosa [26]): 16 µM; Selectivity Index [42]: 3 to 6; Selectivity Index [43]: 50 to 100; Activity (Escherichia coli [27]): Active; MIC (Klebsiella pneumoniae [28]): 8 µM; MIC (Acinetobacter baumannii [29]): 1 to 2 µM; MBC (Escherichia coli [30]): > 64 µM; IC50 (Escherichia coli [31]): 300 nM |

Source: ChEMBL document CHEMBL4020848, “Antibacterial Activity Affected by the Conformational Flexibility in Glycine-Lysine Based α-Helical Antimicrobial Peptides” (J Med Chem, 2018)
